# Test system: participants with SSc-RP
# Experiment: Average severity of weekly RP attacks (VAS 0-10)
# Format: in vivo, human
# Conditions: for Average Severity (0-10) of weekly RP attacks, Median / Average severity of weekly RP attacks, Change from Baseline, Mean / Average severity of weekly RP attacks, Change from Baseline, Median / Average severity of weekly RP attacks, Percent Change from Baseline, Mean / Average severity of weekly RP attacks, Percent Change from Baseline, Median / Average Severity (0-10) of weekly RP attacks, Mean: all attacks
# From the text: The absolute change in average severity of weekly RP attacks (VAS 0-10 cm scale) from baseline to the end of each Dosing Period was and will be a secondary outcome variable. The sponsor-developed participant-informed diary will be used to record data. Average severity of weekly RP attacks is defined as the total severity scores of RP attacks divided by total number of RP attacks within the last 7 days of each dosing period. Total severity scores of RP attacks during the last 7 days of screening period divided by the total number of RP attacks will be used as baseline for the analysis of all periods. The variable will be calculated similar to frequency data as before.
# [1] = Cilnidipine 10 mg, 1st Baseline RCS subgroup, ITT Part A, last 7 days of dosing period
# [2] = Cilnidipine 10 mg, Excluding Outliers, 1st Baseline RCS subgroup, ITT Part A, last 7 days of dosing period
# [3] = Cilnidipine 10 mg, ITT Part A, last 7 days of dosing period
# [4] = Cilnidipine 10 mg, Excluding Outliers, ITT Part A
# [5] = Cilnidipine 10 mg, Excluding Outliers, by Baseline RCS: first subgroup of Table C-8, ITT Part A
# [6] = Cilnidipine 10 mg, by Baseline RCS: first subgroup of Table C-7, ITT Part A
# [7] = Cilnidipine 10 mg, excluding outliers, ITT Part A
# [8] = Cilnidipine 10 mg, excluding outliers, severity 0-10, ITT Part A
# [9] = Cilnidipine 10 mg, severity 0-10, ITT Part A
# [10] = Cilnidipine 20 mg, 1st Baseline RCS subgroup, ITT Part A, last 7 days of dosing period
# [11] = Cilnidipine 20 mg, Excluding Outliers, 1st Baseline RCS subgroup, ITT Part A, last 7 days of dosing period
# [12] = Cilnidipine 20 mg, ITT Part A, last 7 days of dosing period
# [13] = Cilnidipine 20 mg, Excluding Outliers, ITT Part A
# [14] = Cilnidipine 20 mg, Excluding Outliers, by Baseline RCS: first subgroup of Table C-8, ITT Part A
# [15] = Cilnidipine 20 mg, by Baseline RCS: first subgroup of Table C-7, ITT Part A
# [16] = Cilnidipine 20 mg, excluding outliers, ITT Part A
# [17] = Cilnidipine 20 mg, excluding outliers, severity 0-10, ITT Part A
# [18] = Cilnidipine 20 mg, severity 0-10, ITT Part A
# [19] = Pooled Cilnidipine 10 mg and Cilnidipine 10 mg + Tadalafil 5 mg, 1st Baseline RCS subgroup, ITT Part A, last 7 days of dosing period
# [20] = Pooled Cilnidipine 10 mg and Cilnidipine 10 mg + Tadalafil 5 mg, 2nd Baseline RCS subgroup, ITT Part A, last 7 days of dosing period
smiles,measurement,setting,value
COCCOC(=O)C1=C(C)NC(C)=C(C(=O)OC/C=C/c2ccccc2)C1c1cccc([N+](=O)[O-])c1 (stereo not shown) [Cilnidipine],"Average Severity of Weekly Symptomatic RP Attacks, Change from Baseline, Mean",[1],0.28
same,"Average Severity of Weekly Symptomatic RP Attacks, Change from Baseline, Median",[1],0.28
same,"Average Severity of Weekly Symptomatic RP Attacks, Mean",[1],3.77
same,"Average Severity of Weekly Symptomatic RP Attacks, Median",[1],3.77
same,"Average Severity of Weekly Symptomatic RP Attacks, Percent Change from Baseline, Mean",[1],8.05%
same,"Average Severity of Weekly Symptomatic RP Attacks, Percent Change from Baseline, Median",[1],8.05%
same,"Average Severity of Weekly Symptomatic RP Attacks, Change from Baseline, Mean",[2],0.28
same,"Average Severity of Weekly Symptomatic RP Attacks, Change from Baseline, Median",[2],0.28
same,"Average Severity of Weekly Symptomatic RP Attacks, Mean",[2],3.77
same,"Average Severity of Weekly Symptomatic RP Attacks, Median",[2],3.77
same,"Average Severity of Weekly Symptomatic RP Attacks, Percent Change from Baseline, Mean",[2],8.05%
same,"Average Severity of Weekly Symptomatic RP Attacks, Percent Change from Baseline, Median",[2],8.05%
same,"Average Severity of Weekly Symptomatic RP Attacks, Percent Change from Baseline, Mean","Cilnidipine 10 mg, ITT Part A",8.05%
same,"Average Severity of Weekly Symptomatic RP Attacks, Percent Change from Baseline, Median","Cilnidipine 10 mg, ITT Part A",8.05%
same,"Average Severity of Weekly RP Attacks (All Attacks), Change from Baseline, Mean",[3],0.02
same,"Average Severity of Weekly RP Attacks (All Attacks), Change from Baseline, Median",[3],0.02
same,"Average Severity of Weekly RP Attacks (All Attacks), Mean",[3],3.05
same,"Average Severity of Weekly RP Attacks (All Attacks), Median",[3],3.05
same,"Average Severity of Weekly RP Attacks (All Attacks), Percent Change from Baseline, Mean",[3],0.55%
same,"Average Severity of Weekly RP Attacks (All Attacks), Percent Change from Baseline, Median",[3],0.55%
same,"Average Severity (0-10) of weekly RP attacks, Median",[4],3.05
same,"Average severity of weekly RP attacks, Change from Baseline, Mean",[4],0.02
same,"Average severity of weekly RP attacks, Change from Baseline, Median",[4],0.02
same,"Average severity of weekly RP attacks, Percent Change from Baseline, Mean",[4],0.55%
same,"Average severity of weekly RP attacks, Percent Change from Baseline, Median",[4],0.55%
same,"Average Severity (0-10) of weekly RP attacks, Mean",[5],3.05
same,"Average Severity (0-10) of weekly RP attacks, Median",[5],3.05
same,"Average severity of weekly RP attacks, Change from Baseline, Mean",[5],0.02
same,"Average severity of weekly RP attacks, Change from Baseline, Median",[5],0.02
same,"Average severity of weekly RP attacks, Percent Change from Baseline, Mean",[5],0.55%
same,"Average severity of weekly RP attacks, Percent Change from Baseline, Median",[5],0.55%
same,"Average Severity (0-10) of weekly RP attacks, Mean",[6],3.05
same,"Average Severity (0-10) of weekly RP attacks, Median",[6],3.05
same,"Average severity of weekly RP attacks, Change from Baseline, Mean",[6],0.02
same,"Average severity of weekly RP attacks, Change from Baseline, Median",[6],0.02
same,"Average severity of weekly RP attacks, Percent Change from Baseline, Mean",[6],0.55%
same,"Average severity of weekly RP attacks, Percent Change from Baseline, Median",[6],0.55%
same,"Average Severity of Weekly Symptomatic RP Attacks, Percent Change from Baseline, Mean",[7],8.05%
same,"Average Severity of Weekly Symptomatic RP Attacks, Percent Change from Baseline, Median",[7],8.05%
same,"Average Severity of Weekly Symptomatic RP Attacks, Change from Baseline, Mean",[8],0.28
same,"Average Severity of Weekly Symptomatic RP Attacks, Change from Baseline, Median",[8],0.28
same,"Average Severity of Weekly Symptomatic RP Attacks, Mean",[8],3.77
same,"Average Severity of Weekly Symptomatic RP Attacks, Median",[8],3.77
same,"Average Severity of Weekly Symptomatic RP Attacks, Change from Baseline, Mean",[9],0.28
same,"Average Severity of Weekly Symptomatic RP Attacks, Change from Baseline, Median",[9],0.28
same,"Average Severity of Weekly Symptomatic RP Attacks, Mean",[9],3.77
same,"Average Severity of Weekly Symptomatic RP Attacks, Median",[9],3.77
same,Severity (change),Cilnidipine 20 mg (n = 3),−36%
same,"Average Severity of Weekly Symptomatic RP Attacks, Change from Baseline, Mean",[10],−1.44
same,"Average Severity of Weekly Symptomatic RP Attacks, Change from Baseline, Median",[10],−1.44
same,"Average Severity of Weekly Symptomatic RP Attacks, Mean",[10],2.30
same,"Average Severity of Weekly Symptomatic RP Attacks, Median",[10],2.30
same,"Average Severity of Weekly Symptomatic RP Attacks, Percent Change from Baseline, Mean",[10],−32.85%
same,"Average Severity of Weekly Symptomatic RP Attacks, Percent Change from Baseline, Median",[10],−32.85%
same,"Average Severity of Weekly Symptomatic RP Attacks, Change from Baseline, Mean",[11],−1.44
same,"Average Severity of Weekly Symptomatic RP Attacks, Change from Baseline, Median",[11],−1.44
same,"Average Severity of Weekly Symptomatic RP Attacks, Mean",[11],2.30
same,"Average Severity of Weekly Symptomatic RP Attacks, Median",[11],2.30
same,"Average Severity of Weekly Symptomatic RP Attacks, Percent Change from Baseline, Mean",[11],−32.85%
same,"Average Severity of Weekly Symptomatic RP Attacks, Percent Change from Baseline, Median",[11],−32.85%
same,"Average Severity of Weekly Symptomatic RP Attacks, Percent Change from Baseline, Mean","Cilnidipine 20 mg, ITT Part A",−32.85%
same,"Average Severity of Weekly Symptomatic RP Attacks, Percent Change from Baseline, Median","Cilnidipine 20 mg, ITT Part A",−32.85%
same,"Average Severity of Weekly RP Attacks (All Attacks), Change from Baseline, Mean",[12],−1.07
same,"Average Severity of Weekly RP Attacks (All Attacks), Change from Baseline, Median",[12],−1.07
same,"Average Severity of Weekly RP Attacks (All Attacks), Mean",[12],2.30
same,"Average Severity of Weekly RP Attacks (All Attacks), Median",[12],2.30
same,"Average Severity of Weekly RP Attacks (All Attacks), Percent Change from Baseline, Mean",[12],−27.26%
same,"Average Severity of Weekly RP Attacks (All Attacks), Percent Change from Baseline, Median",[12],−27.26%
same,"Average Severity (0-10) of weekly RP attacks, Mean",[13],2.30
same,"Average Severity (0-10) of weekly RP attacks, Median",[13],2.30
same,"Average severity of weekly RP attacks, Change from Baseline, Mean",[13],−1.07
same,"Average severity of weekly RP attacks, Change from Baseline, Median",[13],−1.07
same,"Average severity of weekly RP attacks, Percent Change from Baseline, Mean",[13],−27.26%
same,"Average severity of weekly RP attacks, Percent Change from Baseline, Median",[13],−27.26%
same,"Average Severity (0-10) of weekly RP attacks, Mean",[14],2.30
same,"Average Severity (0-10) of weekly RP attacks, Median",[14],2.30
same,"Average severity of weekly RP attacks, Change from Baseline, Mean",[14],−1.07
same,"Average severity of weekly RP attacks, Change from Baseline, Median",[14],−1.07
same,"Average severity of weekly RP attacks, Percent Change from Baseline, Mean",[14],−27.26%
same,"Average severity of weekly RP attacks, Percent Change from Baseline, Median",[14],−27.26%
same,"Average Severity (0-10) of weekly RP attacks, Mean",[15],2.30
same,"Average Severity (0-10) of weekly RP attacks, Median",[15],2.30
same,"Average severity of weekly RP attacks, Change from Baseline, Mean",[15],−1.07
same,"Average severity of weekly RP attacks, Change from Baseline, Median",[15],−1.07
same,"Average severity of weekly RP attacks, Percent Change from Baseline, Mean",[15],−27.26%
same,"Average severity of weekly RP attacks, Percent Change from Baseline, Median",[15],−27.26%
same,"Average Severity of Weekly Symptomatic RP Attacks, Percent Change from Baseline, Mean",[16],−32.85%
same,"Average Severity of Weekly Symptomatic RP Attacks, Percent Change from Baseline, Median",[16],−32.85%
same,"Average Severity of Weekly Symptomatic RP Attacks, Change from Baseline, Mean",[17],−1.44
same,"Average Severity of Weekly Symptomatic RP Attacks, Change from Baseline, Median",[17],−1.44
same,"Average Severity of Weekly Symptomatic RP Attacks, Mean",[17],2.30
same,"Average Severity of Weekly Symptomatic RP Attacks, Median",[17],2.30
same,"Average Severity of Weekly Symptomatic RP Attacks, Change from Baseline, Mean",[18],−1.44
same,"Average Severity of Weekly Symptomatic RP Attacks, Change from Baseline, Median",[18],−1.44
same,"Average Severity of Weekly Symptomatic RP Attacks, Mean",[18],2.30
same,"Average Severity of Weekly Symptomatic RP Attacks, Median",[18],2.30
same,"Average Severity of Weekly Symptomatic RP Attacks, Change from Baseline, Mean",[19],−1.22
same,"Average Severity of Weekly Symptomatic RP Attacks, Change from Baseline, Median",[19],−1.22
same,"Average Severity of Weekly Symptomatic RP Attacks, Mean",[19],3.34
same,"Average Severity of Weekly Symptomatic RP Attacks, Median",[19],3.34
same,"Average Severity of Weekly Symptomatic RP Attacks, Percent Change from Baseline, Mean",[19],−20.18%
same,"Average Severity of Weekly Symptomatic RP Attacks, Percent Change from Baseline, Median",[19],−20.18%
same,"Average Severity of Weekly Symptomatic RP Attacks, Change from Baseline, Mean",[20],−1.13
same,"Average Severity of Weekly Symptomatic RP Attacks, Change from Baseline, Median",[20],−1.13
same,"Average Severity of Weekly Symptomatic RP Attacks, Mean",[20],5.23
same,"Average Severity of Weekly Symptomatic RP Attacks, Median",[20],5.23
same,"Average Severity of Weekly Symptomatic RP Attacks, Percent Change from Baseline, Mean",[20],−17.81%
same,"Average Severity of Weekly Symptomatic RP Attacks, Percent Change from Baseline, Median",[20],−17.81%
same,"Average Severity of Weekly Symptomatic RP Attacks, Change from Baseline, Mean","Pooled Cilnidipine 10 mg and Cilnidipine 10 mg + Tadalafil 5 mg, Excluding Outliers, 1st Baseline RCS subgroup, ITT Part A, last 7 days of dosing period",−1.22
